Assay results as given in the supplement of paper PMC4862054.

Experiments:
Conditions in all cases: incubation time: 72 h
CAL-120 [1] = experiment: normalised response (% of control), CellTox Green; higher = less cell death (100 = DMSO, 0 = benzethonium chloride kill control)
In short: (§1)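 Each entry is the normalised signal at a single concentration within a series. The series comprised 5 concentrations in 10-fold steps over a compound-specific 10,000-fold range, placed in 384-well plates into which breast cancer cell lines were seeded as 20 µl suspension and incubated 72 h. CellTox Green (485/520 nm) fluorescence and then CellTiter-Glo luminescence were read, with signals normalised per plate to 0.1 % DMSO (100) and a positive kill control (0).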

MDA-MB-468 [2] = experiment: as above
In short: as §1

HCC1143 [3] = experiment: as above
In short: as §1

MDA-MB-453 [4] = experiment: as above
In short: as §1

CAL-85-1 [5] = experiment: as above
In short: as §1

DU-4475 [6] = experiment: as above
In short: as §1

HDQ-P1 [7] = experiment: as above
In short: as §1

MCF-10A [8] = experiment: as above
In short: as §1

HCC1599 [9] = experiment: as above
In short: as §1

CAL-148 [10] = experiment: as above
In short: as §1

HCC1937 [11] = experiment: as above
In short: as §1

MDA-MB-436 [12] = experiment: as above
In short: as §1

BT-474 [13] = experiment: as above
In short: as §1

Hs578T [14] = experiment: as above
In short: as §1

BT-549 [15] = experiment: as above
In short: as §1

MDA-MB-231 [16] = experiment: as above
In short: as §1

CAL-51 [17] = experiment: as above
In short: as §1

MFM-223 [18] = experiment: as above
In short: as §1

CAL-120 [19] = experiment: normalised response (% of control), CellTiter-Glo; higher = more viable cells (100 = DMSO, 0 = benzethonium chloride kill control)
In short: as §1

MDA-MB-468 [20] = experiment: as above
In short: as §1

HCC1143 [21] = experiment: as above
In short: as §1

MDA-MB-453 [22] = experiment: as above
In short: as §1

CAL-85-1 [23] = experiment: as above
In short: as §1

DU-4475 [24] = experiment: as above
In short: as §1

HDQ-P1 [25] = experiment: as above
In short: as §1

MCF-10A [26] = experiment: as above
In short: as §1

HCC1599 [27] = experiment: as above
In short: as §1

CAL-148 [28] = experiment: as above
In short: as §1

HCC1937 [29] = experiment: as above
In short: as §1

MDA-MB-436 [30] = experiment: as above
In short: as §1

BT-474 [31] = experiment: as above
In short: as §1

SK-BR-3 = experiment: as above
In short: as §1

Hs578T [32] = experiment: as above
In short: as §1

BT-549 [33] = experiment: as above
In short: as §1

MDA-MB-231 [34] = experiment: as above
In short: as §1

CAL-51 [35] = experiment: as above
In short: as §1

MFM-223 [36] = experiment: as above
In short: as §1

CC(C)(C)Cn1c(N)nc2ccc(-c3[nH]c(C(C)(C)C)nc3-c3ccc(F)cc3)nc21 (100 nM)
normalised response (CAL-120 [1]): 103% | normalised response (MDA-MB-468 [2]): 117% | normalised response (HCC1143 [3]): 113% | normalised response (MDA-MB-453 [4]): 102% | normalised response (CAL-85-1 [5]): 112% | normalised response (DU-4475 [6]): 103% | normalised response (HDQ-P1 [7]): 109% | normalised response (MCF-10A [8]): 99.2% | normalised response (HCC1599 [9]): 98.1% | normalised response (CAL-148 [10]): 102% | normalised response (HCC1937 [11]): 105% | normalised response (MDA-MB-436 [12]): 98% | normalised response (BT-474 [13]): 102% | normalised response (Hs578T [14]): 105% | normalised response (BT-549 [15]): 101% | normalised response (MDA-MB-231 [16]): 72.7% | normalised response (CAL-51 [17]): 96.5% | normalised response (MFM-223 [18]): 82.9% | normalised response (CAL-120 [19]): 106% | normalised response (MDA-MB-468 [20]): 95.8% | normalised response (HCC1143 [21]): 110% | normalised response (MDA-MB-453 [22]): 101% | normalised response (CAL-85-1 [23]): 99.5% | normalised response (DU-4475 [24]): 103% | normalised response (HDQ-P1 [25]): 88.5% | normalised response (MCF-10A [26]): 98.4% | normalised response (HCC1599 [27]): 102% | normalised response (CAL-148 [28]): 100% | normalised response (HCC1937 [29]): 92.8% | normalised response (MDA-MB-436 [30]): 105% | normalised response (BT-474 [31]): 102% | normalised response (SK-BR-3): 104% | normalised response (Hs578T [32]): 102% | normalised response (BT-549 [33]): 105% | normalised response (MDA-MB-231 [34]): 98.6% | normalised response (CAL-51 [35]): 92.9% | normalised response (MFM-223 [36]): 104%

NC(=O)c1cccc2cn(-c3ccc([C@@H]4CCCNC4)cc3)nc12 [MK-4827] (100 nM)
normalised response (CAL-120 [1]): 102% | normalised response (MDA-MB-468 [2]): 136% | normalised response (HCC1143 [3]): 110% | normalised response (MDA-MB-453 [4]): 91.6% | normalised response (CAL-85-1 [5]): 102% | normalised response (DU-4475 [6]): 101% | normalised response (HDQ-P1 [7]): 78% | normalised response (MCF-10A [8]): 84.8% | normalised response (HCC1599 [9]): 115% | normalised response (CAL-148 [10]): 104% | normalised response (HCC1937 [11]): 111% | normalised response (BT-474 [13]): 88.2% | normalised response (Hs578T [14]): 116% | normalised response (MDA-MB-231 [16]): 107% | normalised response (CAL-51 [17]): 89.4% | normalised response (MFM-223 [18]): 82.5% | normalised response (CAL-120 [19]): 105% | normalised response (MDA-MB-468 [20]): 94.7% | normalised response (HCC1143 [21]): 107% | normalised response (MDA-MB-453 [22]): 99.4% | normalised response (CAL-85-1 [23]): 101% | normalised response (DU-4475 [24]): 99.8% | normalised response (HDQ-P1 [25]): 101% | normalised response (MCF-10A [26]): 110% | normalised response (HCC1599 [27]): 90% | normalised response (CAL-148 [28]): 112% | normalised response (HCC1937 [29]): 102% | normalised response (MDA-MB-436 [30]): 95.8% | normalised response (BT-474 [31]): 109% | normalised response (SK-BR-3): 104% | normalised response (Hs578T [32]): 95.1% | normalised response (BT-549 [33]): 91.6% | normalised response (MDA-MB-231 [34]): 106% | normalised response (CAL-51 [35]): 90.9% | normalised response (MFM-223 [36]): 107%

CCN(CC)CCOc1ccc(C(=C(Cl)c2ccccc2)c2ccccc2)cc1 [Clomifene] (100 nM)
normalised response (CAL-120 [1]): 102% | normalised response (MDA-MB-468 [2]): 91.3% | normalised response (HCC1143 [3]): 112% | normalised response (MDA-MB-453 [4]): 104% | normalised response (CAL-85-1 [5]): 106% | normalised response (DU-4475 [6]): 100% | normalised response (HDQ-P1 [7]): 97.7% | normalised response (MCF-10A [8]): 104% | normalised response (HCC1599 [9]): 98.5% | normalised response (CAL-148 [10]): 96.2% | normalised response (HCC1937 [11]): 59.1% | normalised response (BT-474 [13]): 96.8% | normalised response (Hs578T [14]): 75.9% | normalised response (BT-549 [15]): 105% | normalised response (MDA-MB-231 [16]): 106% | normalised response (CAL-51 [17]): 112% | normalised response (MFM-223 [18]): 102% | normalised response (CAL-120 [19]): 103% | normalised response (MDA-MB-468 [20]): 94.1% | normalised response (HCC1143 [21]): 102% | normalised response (MDA-MB-453 [22]): 103% | normalised response (CAL-85-1 [23]): 101% | normalised response (DU-4475 [24]): 103% | normalised response (HDQ-P1 [25]): 99% | normalised response (MCF-10A [26]): 95.2% | normalised response (HCC1599 [27]): 87.8% | normalised response (CAL-148 [28]): 109% | normalised response (HCC1937 [29]): 101% | normalised response (MDA-MB-436 [30]): 98.5% | normalised response (BT-474 [31]): 105% | normalised response (SK-BR-3): 104% | normalised response (Hs578T [32]): 113% | normalised response (BT-549 [33]): 103% | normalised response (MDA-MB-231 [34]): 106% | normalised response (CAL-51 [35]): 102% | normalised response (MFM-223 [36]): 104%

CC[C@@H]1C(=O)N(C)c2cnc(Nc3ccc(C(=O)N[C@H]4CC[C@H](N5CCN(CC6CC6)CC5)CC4)cc3OC)nc2N1C(C)C [Volasertib] (10 nM)
normalised response (CAL-120 [1]): 91.6% | normalised response (MDA-MB-468 [2]): 34.3% | normalised response (MDA-MB-453 [4]): 92.4% | normalised response (CAL-85-1 [5]): 69.5% | normalised response (DU-4475 [6]): 95.3% | normalised response (HDQ-P1 [7]): 87% | normalised response (HCC1599 [9]): 91.3% | normalised response (CAL-148 [10]): 86% | normalised response (HCC1937 [11]): 53.5% | normalised response (MDA-MB-436 [12]): 19.6% | normalised response (BT-474 [13]): 71.2% | normalised response (Hs578T [14]): 77% | normalised response (BT-549 [15]): 100% | normalised response (MDA-MB-231 [16]): 71.8% | normalised response (CAL-51 [17]): 65.5% | normalised response (MFM-223 [18]): 1.2% | normalised response (CAL-120 [19]): 88.5% | normalised response (MDA-MB-468 [20]): 68.3% | normalised response (HCC1143 [21]): 82% | normalised response (MDA-MB-453 [22]): 65.4% | normalised response (CAL-85-1 [23]): 70.4% | normalised response (DU-4475 [24]): 100% | normalised response (HDQ-P1 [25]): 86.3% | normalised response (MCF-10A [26]): 87.9% | normalised response (HCC1599 [27]): 106% | normalised response (CAL-148 [28]): 84.4% | normalised response (HCC1937 [29]): 83% | normalised response (MDA-MB-436 [30]): 59.5% | normalised response (BT-474 [31]): 82.6% | normalised response (SK-BR-3): 54.8% | normalised response (Hs578T [32]): 96.3% | normalised response (BT-549 [33]): 89.8% | normalised response (MDA-MB-231 [34]): 79.9% | normalised response (CAL-51 [35]): 84.2% | normalised response (MFM-223 [36]): 54.6%

O=C(c1cc(Cc2n[nH]c(=O)c3ccccc23)ccc1F)N1CCN(C(=O)C2CC2)CC1 [Olaparib] (100 nM)
normalised response (CAL-120 [1]): 95% | normalised response (HCC1143 [3]): 110% | normalised response (MDA-MB-453 [4]): 103% | normalised response (CAL-85-1 [5]): 103% | normalised response (DU-4475 [6]): 101% | normalised response (HDQ-P1 [7]): 101% | normalised response (MCF-10A [8]): 98.9% | normalised response (HCC1599 [9]): 101% | normalised response (CAL-148 [10]): 79.6% | normalised response (HCC1937 [11]): 94.9% | normalised response (MDA-MB-436 [12]): 88.4% | normalised response (BT-474 [13]): 96.5% | normalised response (Hs578T [14]): 110% | normalised response (BT-549 [15]): 105% | normalised response (MDA-MB-231 [16]): 97.4% | normalised response (CAL-51 [17]): 81.9% | normalised response (MFM-223 [18]): 103% | normalised response (CAL-120 [19]): 91.4% | normalised response (MDA-MB-468 [20]): 105% | normalised response (HCC1143 [21]): 94.4% | normalised response (MDA-MB-453 [22]): 107% | normalised response (CAL-85-1 [23]): 102% | normalised response (DU-4475 [24]): 95.8% | normalised response (HDQ-P1 [25]): 96.8% | normalised response (MCF-10A [26]): 101% | normalised response (HCC1599 [27]): 103% | normalised response (CAL-148 [28]): 98.5% | normalised response (HCC1937 [29]): 96% | normalised response (MDA-MB-436 [30]): 91.3% | normalised response (BT-474 [31]): 96.5% | normalised response (SK-BR-3): 88.8% | normalised response (Hs578T [32]): 97.7% | normalised response (BT-549 [33]): 100% | normalised response (MDA-MB-231 [34]): 93.8% | normalised response (CAL-51 [35]): 66.4% | normalised response (MFM-223 [36]): 99.2%
